Among the data in patent publication US8501936B2 (priority 2009, dated 2013) are IC50 values, retold here.

Usually pIC50 stands for −log10 of the IC50, conventionally taken in molar units.

One assay deals with human FAK (Homo sapiens (Human), UniProt Q05397). As to conditions: read-out: FAK IC50.
A further assay addresses human JAK2 (Homo sapiens (Human), UniProt O60674). As to conditions: read-out: JAK2 IC50.

pIC50: −log10 of the molar value.

human JAK2, sequence (O60674 815-1132): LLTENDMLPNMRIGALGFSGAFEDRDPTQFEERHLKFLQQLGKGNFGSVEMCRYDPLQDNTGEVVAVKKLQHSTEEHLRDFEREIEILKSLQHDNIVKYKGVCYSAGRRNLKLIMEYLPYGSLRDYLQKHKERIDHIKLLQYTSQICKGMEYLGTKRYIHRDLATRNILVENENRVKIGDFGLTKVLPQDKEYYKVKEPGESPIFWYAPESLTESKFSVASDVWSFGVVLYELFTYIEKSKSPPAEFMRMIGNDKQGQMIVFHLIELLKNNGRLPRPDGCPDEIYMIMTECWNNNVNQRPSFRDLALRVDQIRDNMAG
human FAK, sequence (Q05397 whole entry): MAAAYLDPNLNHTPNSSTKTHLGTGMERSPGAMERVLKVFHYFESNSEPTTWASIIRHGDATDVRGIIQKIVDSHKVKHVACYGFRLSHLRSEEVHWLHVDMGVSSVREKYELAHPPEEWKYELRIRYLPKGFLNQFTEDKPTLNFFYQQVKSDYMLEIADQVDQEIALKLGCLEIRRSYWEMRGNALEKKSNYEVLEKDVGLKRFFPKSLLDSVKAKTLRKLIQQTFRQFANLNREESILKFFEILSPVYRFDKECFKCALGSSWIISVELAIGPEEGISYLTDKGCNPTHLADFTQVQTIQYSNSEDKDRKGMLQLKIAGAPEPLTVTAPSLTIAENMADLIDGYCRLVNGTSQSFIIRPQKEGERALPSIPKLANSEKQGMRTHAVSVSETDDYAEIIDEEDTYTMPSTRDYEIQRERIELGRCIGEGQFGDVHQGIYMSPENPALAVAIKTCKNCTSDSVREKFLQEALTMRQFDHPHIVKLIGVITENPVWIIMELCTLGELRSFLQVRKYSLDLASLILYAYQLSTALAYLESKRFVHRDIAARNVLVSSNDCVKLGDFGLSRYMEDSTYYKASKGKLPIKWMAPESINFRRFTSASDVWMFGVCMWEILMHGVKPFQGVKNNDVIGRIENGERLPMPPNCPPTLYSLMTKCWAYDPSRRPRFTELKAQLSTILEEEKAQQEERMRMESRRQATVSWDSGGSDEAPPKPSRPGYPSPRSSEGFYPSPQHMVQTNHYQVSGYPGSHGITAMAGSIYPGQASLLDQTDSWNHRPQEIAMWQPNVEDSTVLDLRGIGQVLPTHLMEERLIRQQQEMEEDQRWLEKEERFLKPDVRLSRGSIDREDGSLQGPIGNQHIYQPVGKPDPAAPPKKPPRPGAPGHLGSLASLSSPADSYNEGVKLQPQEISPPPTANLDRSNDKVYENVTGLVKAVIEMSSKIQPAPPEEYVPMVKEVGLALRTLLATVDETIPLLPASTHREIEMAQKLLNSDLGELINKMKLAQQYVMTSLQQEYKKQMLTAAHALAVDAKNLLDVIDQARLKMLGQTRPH

As to `COc1ccc(C(F)(F)F)cc1-c1cccn2nc(Nc3cccc(C4CCNCC4)c3)nc12` [Example 257, [8-(2-Methoxy-5-trifluoromethyl-phenyl)-[1,2,4]triazolo[1,5-a]pyridin-2-yl]-(3-piperidin-4-yl-phenyl)-amine], the pIC50 on human FAK was 6.32; at human JAK2, 7.54.
Turning to `COc1ccc(C(F)(F)F)cc1-c1cccn2nc(Nc3ccc(OCCN4CCOCC4)cc3)nc12` [Example 258, [8-(2-Methoxy-5-trifluoromethyl-phenyl)-[1,2,4]triazolo[1,5-a]pyridin-2-yl]-[4-(2-morpholin-4-yl-ethoxy)-phenyl]-amine], the pIC50 at human FAK was 5.19; on human JAK2, 7.07.
Take `COc1ccc(C(F)(F)F)cc1-c1cccn2nc(Nc3ccc(OCCN4CCCC4)cc3)nc12` [Example 259, [8-(2-Methoxy-5-trifluoromethyl-phenyl)-[1,2,4]triazolo[1,5-a]pyridin-2-yl]-[4-(2-pyrrolidin-1-yl-ethoxy)-phenyl]-amine]: the figures for the pIC50 at human FAK and at human JAK2 were 5.47 and 7.13, respectively.
With `CN1CCN(c2cccc(Nc3nc4c(OCc5cccc(Cl)c5)cccn4n3)c2)CC1` [Example 261, [8-(3-Chloro-benzyloxy)-[1,2,4]triazolo[1,5-a]pyridin-2-yl]-[3-(4-methyl-piperazin-1-yl)-phenyl]-amine], the pIC50 at human FAK was 5.80; at human JAK2, 7.00.
As for `CN1CCN(c2ccc(Nc3nc4c(OCc5ccccc5C#N)cccn4n3)cc2)CC1` [Example 262, 2-{2-[4-(4-Methyl-piperazin-1-yl)-phenylamino]-[1,2,4]triazolo[1,5-a]pyridin-8-yloxymethyl}-benzonitrile], the pIC50 was 5.59 at human FAK and 7.82 on human JAK2.
With `CC(=O)Nc1cccc(Nc2nc3c(-c4ccc(S(C)(=O)=O)cc4)cccn3n2)c1` [Example 267, N-{3-[8-(4-Methanesulfonyl-phenyl)-[1,2,4]triazolo[1,5-a]pyridin-2-ylamino]-phenyl}-acetamide], the pIC50 is 5.00 on human FAK and 8.46 at human JAK2.
In the same order, the values of `CS(=O)(=O)CCN1CCc2ccc(Nc3nc4c(-c5cc(C(F)(F)F)ccc5Cl)cccn4n3)cc2CC1` [Example 268, [8-(2-Chloro-5-trifluoromethyl-phenyl)-[1,2,4]triazolo[1,5-a]pyridin-2-yl]-[3-(2-methanesulfonyl-ethyl)-2,3,4,5-tetrahydro-1H-benzo[d]azopin-7-yl]-amine] are 6.00 and 7.77.
Turning to `COc1ncccc1-c1cccn2nc(Nc3ccc(C4CCN(C(=O)OC(C)(C)C)CC4)cc3)nc12` [Example 271], the values for the pIC50 at human FAK and at human JAK2 were 5.00 and 6.17, respectively.
As for `COc1ncccc1-c1cccn2nc(Nc3ccc(C4CCNCC4)cc3)nc12` [Example 272], the pIC50 at human FAK is 5.00; at human JAK2, 6.42.
`COc1ncccc1-c1cccn2nc(Nc3ccc(C4CCN(CC(=O)N(C)C)CC4)cc3)nc12` [Example 273, 2-(4-{4-[8-(2-Methoxy-pyridin-3-yl)-[1,2,4]triazolo[1,5-a]pyridine-2-ylamino]-phenyl}-piperidin-1-yl)-N,N-dimethyl-acetamide]: the pIC50 on human FAK is 6.00; at human JAK2, 6.60.
In the same order, the values of `COc1ncccc1-c1cccn2nc(Nc3ccc4ncccc4c3)nc12` [Example 274, [8-(2-Methoxy-pyridin-3-yl)-[1,2,4]triazolo[1,5-a]pyridine-2-yl]-quinolin-6-yl-amine] are 5.00 and 6.72.
Taken in the same sequence, the figures for `CN(C)C(=O)CN1CCC(c2ccc(Nc3nc4c(-c5ccc[nH]c5=O)cccn4n3)cc2)CC1` [Example 275, N,N-Dimethyl-2(4-{4-[8-(2-oxo-1,2-dihydro-pyridin-3-yl)-[1,2,4]triazolo[1,5-a]pyridine-2-ylamino]-phenyl}-piperidin-1-yl)-acetamide] were 5.70 and 6.57.
As to `COc1ncc(C(F)(F)F)cc1-c1cccn2nc(Nc3ccc(C4CCNCC4)cc3)nc12` [Example 278, [8-(2-Methoxy-5-trifluoromethyl-pyridin-3-yl)-[1,2,4]triazolo[1,5-a]pyridine-2-yl]-(4-piperidine-4-yl-phenyl)-amine], the pIC50 was 5.00 on human FAK and 6.88 on human JAK2.
Taken in the same sequence, the figures for `COc1ncc(C(F)(F)F)cc1-c1cccn2nc(Nc3ccc(C4CCN(CC(=O)N(C)C)CC4)cc3)nc12` [Example 279, 2-(4-{4-[8-(2-Methoxy-5-trifluoromethyl-pyridin-3-yl)-[1,2,4]triazolo[1,5-a]pyridin-2-ylamino]-phenyl}-piperidin-1-yl)-N,N-dimethyl-acetamide] were 5.00 and 7.13.
In the same order, the values of `Fc1ccc(-n2cc(-c3cccn4nc(Nc5ccc(C6CCNCC6)cc5)nc34)cn2)cc1` [Example 282] are 6.00 and 8.67.
Regarding `COc1cnc(-c2cccn3nc(Nc4ccc(C5CCNCC5)cc4)nc23)cn1` [Example 285], the pIC50 was 5.61 at human FAK and 7.13 at human JAK2.
As for `COc1cnc(-c2cccn3nc(Nc4ccc(C5CCN(CC(=O)N(C)C)CC5)cc4)nc23)cn1` [Example 286, 2-(4-{4-[8-(5-Methoxy-pyrazin-2-yl)-[1,2,4]triazolo[1,5-a]pyridine-2-ylamino]-phenyl}-piperidin-1-yl)-N,N-dimethyl-acetamide], the results for the negative logarithm of the IC50 (pIC50) on human FAK and on human JAK2 were 5.52 and 6.87, respectively.
Turning to `CN1CCN(c2cccc(Nc3nc4c(-c5cnn(-c6ccc(F)cc6)c5)cccn4n3)c2)CC1` [Example 288, {8-[1-(4-Fluoro-phenyl)-1H-pyrazol-4-yl]-[1,2,4]triazolo[1,5-a]pyridine-2-yl}-[3-(4-methyl-piperazin-1-yl)-phenyl]-amine], the pIC50 at human FAK was 5.52; at human JAK2, 8.25.
For `Cc1ccc(-n2cc(-c3cccn4nc(Nc5ccc(C6CCNCC6)cc5)nc34)cn2)cc1` [Example 289, (4-Piperidin-4-yl-phenyl)-[8-(1-p-tolyl-1H-pyrazol-4-yl)-[1,2,4]triazolo[1,5-a]pyridine-2-yl]-amine], the pIC50 at human FAK is 5.62; on human JAK2, 8.39.
Turning to `CC(C)COc1cccc(-c2cccn3nc(Nc4ccc5c(c4)CCNCC5)nc23)c1` [Example 294, [8-(3-Isobutoxy-phenyl]-[1,2,4]triazolo[1,5a]pyridine-2-yl]-(2,3,4,5-tetrahydro-benzo[d]azepin-7-yl)-amine], the pIC50 was 5.52 on human FAK and 7.49 at human JAK2.
As to `Cc1ccc(-c2cccn3nc(Nc4ccc5c(c4)CCNCC5)nc23)c(OCC(C)C)c1` [Example 296, [8-(2-Isobutoxy-4-methyl-phenyl]-[1,2,4]triazolo[1,5a]pyridine-2-yl]-(2,3,4,5-tetrahydro-benzo[d]azepin-7-yl)-amine], the negative logarithm of the IC50 (pIC50) at human FAK was 5.52; at human JAK2 it was 5.55.
For the compound `Cn1ncc2c(-c3cccn4nc(Nc5ccc6c(c5)CCNCC6)nc34)cccc21` [Example 298, [8-(1-Methyl-1H-indazol-4-yl)-[1,2,4]triazolo[1,5a]pyridine-2-yl]-(2,3,4,5-tetrahydro-benzo[d]azepin-7-yl)-amine], the pIC50 was 5.99 at human FAK and 7.78 on human JAK2.
In the case of `c1ccc(-c2cccn3nc(Nc4ccc5c(c4)CCNCC5)nc23)c(OCC2CC2)c1` [Example 301, [8-(2-Cyclopropylmethoxy-phenyl]-[1,2,4]triazolo[1,5a]pyridine-2-yl]-(2,3,4,5-tetrahydro-benzo[d]azepin-7-yl)-amine], the pIC50 is 5.55 on human FAK and 6.95 on human JAK2.
As for `Cc1ccc(OCC(C)C)c(-c2cccn3nc(Nc4ccc5c(c4)CCNCC5)nc23)c1` [Example 305, [8-(2-Isobutoxy-5-methyl-phenyl]-[1,2,4]triazolo[1,5a]pyridine-2-yl]-(2,3,4,5-tetrahydro-benzo[d]azepin-7-yl)-amine], the pIC50 at human FAK was 5.00; on human JAK2, 5.51.
In the same order, the values of `CCCOc1ccc(Cl)cc1-c1cccn2nc(Nc3ccc4c(c3)CCNCC4)nc12` [Example 307, [8-(5-Chloro-2-propoxy-phenyl]-[1,2,4]triazolo[1,5a]pyridine-2-yl]-(2,3,4,5-tetrahydro-benzo[d]azepin-7-yl)-amine] are 5.98 and 6.08.
In the case of `CCCOc1ccc(Cl)cc1-c1cccn2nc(Nc3ccc4c(c3)CCN(CC(=O)N(C)C)CC4)nc12` [Example 308, 2-{7-[8-(5-Chloro-2-propoxy-phenyl]-[1,2,4]triazolo[1,5a]pyridine-2-ylamino]1,2,4,5-tetrahydro-benzo[d]azepin-3-yl)-N,N-dimethyl-acetamide], the negative-log IC50 (pIC50) on human FAK was 6.02; on human JAK2, 6.44.
`CCOc1ccc(Cl)cc1-c1cccn2nc(Nc3ccc4c(c3)CCNCC4)nc12` [Example 310, [8-(5-Chloro-2-ethoxy-phenyl]-[1,2,4]triazolo[1,5a]pyridine-2-yl]-(2,3,4,5-tetrahydro-benzo[d]azepin-7-yl)-amine]: the values for the pIC50 at human FAK and on human JAK2 were 5.91 and 7.48, respectively.
On to `COc1ccccc1-c1cccn2nc(Nc3ccc4c(c3)CCN(CC(=O)N(C)C)CC4)nc12` [Example 313, 2-{7-[8-(2-Methoxy-phenyl)-[1,2,4]triazolo[1,5-a]pyridine-2-ylamino]-1,2,4,5-tetrahydro-3-benzazepin-3-yl}-N,N-dimethyl-acetamide], for which the figures for the pIC50 at human FAK and on human JAK2 were 5.00 and 7.41, respectively.
In the same order, the values of `COc1ccccc1-c1cccn2nc(Nc3ccc4c(c3)CCN(CCS(C)(=O)=O)CC4)nc12` [Example 314, [3-(2-Methanesulfonyl-ethyl)-2,3,4,5-tetrahydro-1H-3-benzazepin-7-yl]-[8-(2-methoxy-phenyl)-[1,2,4]triazolo[1,5-a]pyridine-2-yl]-amine] are 5.00 and 7.75.
In the same order, the values of `COc1ccc(C(F)(F)F)cc1-c1cccn2nc(Nc3ccc4c(c3)CCN(CC(=O)N(C)C)CC4)nc12` [Example 317, 2-{7-[8-(2-Methoxy-5-trifluoromethyl-phenyl)-[1,2,4]triazolo[1,5-a]pyridin-2-ylamino]-1,2,4,5-tetrahydro-3-benzazepin-3-yl}-N,N-dimethyl-acetamide] are 5.70 and 7.26.
